Results published in US12668568B2, “Adamantanyl-substituted benzamide compounds and their use as P2X7 receptor antagonists” (The University of Sydney, priority 2018, dated 2026).

Tests used:
CYP2D6 = biological target: T1, CYP2D6 (Homo sapiens, UniProt P10635); assay: Cytochrome profiling CYP2D6 (baculosomes); type: in vitro ADME; settings: probe fluorogenic probe substrate (not named), 10 μM substrate
T1 construct: host or cells: insect cells infected with recombinant baculovirus (microsomes)
Excerpt: (§1) Cytochrome P450 (abbreviated CYP, P450 or CYP450) belong to very large and diverse superfamily of haemoproteins which accept both exogenous and endogenous compounds as substrates in enzymatic reactions and play a major role in drug metabolism. Although this class has more than 50 enzymes just 5 of them (CYP1A2, CYP2C9, CYP2C19, CYP2D6 and CYP3A4) are able to metabolise almost 90% of all drugs. Inhibition of these enzymes is one of the major reasons for drug-drug interactions. Consequently, detailed CYP inhibition profiles are a regulatory requirement for all new drugs. Inhibition potencies against the five most relevant CYP isoforms is performed using baculosomes; microsomes prepared from insect cells infected with recombinant baculovirus containing cDNA for a specific human P450 isozyme. The baculosomes are incubated with drug at a concentration of 1 μM in the presence of a probe substrate for 60 minutes at 37° C. The probe is normally metabolised by the baculosomes to produce a fluorescent metabolite. A substrate drug will compete for the isozyme and reduce the metabolism of the probe resulting in a decrease in the fluorescent signal. The percent inhibition due to the presence of the test compound is calculated using the following equation: [formula] • X=fluorescent intensity observed in the presence of test compound • A=fluorescent intensity observed in control • B=fluorescent intensity observed in the presence of the probe control

P-gp (human MDR1) = assay: MDCK P-glycoprotein bidirectional permeability assay; type: in vitro ADME, canine; settings: dog, 30 minute, 37° C.; for Papp A→B at 30 min, 10 μM: apical to basolateral; for Papp B→A at 30 min, 10 μM: basolateral to apical
Protocol: The transcellular permeability of test compounds and the influence of Pgp-mediated efflux on drug permeability was assessed using hMDR1-MDCK monolayers grown on filter supports. All compounds were dissolved in 100% DMSO to provide 10 mM stock solutions from which donor (dose) solutions were prepared in DMEM to give a final drug concentration of 10 μM. All dose solutions contained 10 μM propranolol as an internal standard. hMDR1-MDCK seeded filters were exposed to a fixed volume of the donor solution containing the compound of interest and its ability to traverse the monolayer and appear in the receiver compartment measured over a 30 minute period at 37° C. Bidirectional permeability measurements were derived by examining the transfer of compound in both the apical to basolateral compartment, and vice versa. Sample analysis was conducted using LC-MS/MS with the detection settings optimised for each test compound. Following analysis of the samples the apparent permeability coefficient (Papp, cm/sec) for the discovery compounds is determined using the following relationship: [formula] • VR=Volume of the receiver compartment • A=Surface area of the filter • CD=Drug concentration in the donor concentration • Δt=incubation time • ΔCR=the amount of drug detected in the receiver compartment The efflux ratio can be determined from these values by calculating the ratio of the Papp values derived in the B-A direction and A-B direction (i.e. Papp B-A/Papp A-B). […] P-gp) influencing transport.

CYP1A2 = biological target: T2, CYP1A2 (Homo sapiens, UniProt P05177); assay: Cytochrome profiling CYP1A2 (baculosomes); type: in vitro ADME; settings: probe fluorogenic probe substrate (not named), 10 μM substrate
T2 construct: host or cells: insect cells infected with recombinant baculovirus (microsomes)
T2 sequence (P05177 1-516): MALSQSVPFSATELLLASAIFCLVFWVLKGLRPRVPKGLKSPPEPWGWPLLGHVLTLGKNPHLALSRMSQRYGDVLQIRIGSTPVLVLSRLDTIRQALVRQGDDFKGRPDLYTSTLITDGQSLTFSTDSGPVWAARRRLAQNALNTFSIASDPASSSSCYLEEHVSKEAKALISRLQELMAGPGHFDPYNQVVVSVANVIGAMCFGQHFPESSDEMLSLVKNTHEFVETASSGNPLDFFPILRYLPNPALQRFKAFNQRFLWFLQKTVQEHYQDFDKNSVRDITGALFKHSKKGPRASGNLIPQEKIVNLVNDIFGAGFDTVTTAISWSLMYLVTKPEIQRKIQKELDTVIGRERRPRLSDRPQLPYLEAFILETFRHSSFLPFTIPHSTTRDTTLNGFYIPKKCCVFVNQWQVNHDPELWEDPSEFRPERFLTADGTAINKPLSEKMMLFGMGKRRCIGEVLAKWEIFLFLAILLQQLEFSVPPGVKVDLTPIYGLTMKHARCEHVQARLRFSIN
Excerpt: as §1

hP2X7R = biological target: T3, hP2X7R (Homo sapiens, UniProt Q99572); assay: Radioligand binding assay, displacement of [3H]-Compound 31, HEK-hP2X7 membranes; settings: displacement of tritium-labeled benzamide 31-t3, HEK cells expressing hP2X7R; mean ± standard deviation, n >3; read-out: Binding affinity Ki
T3 sequence (Q99572 1-595): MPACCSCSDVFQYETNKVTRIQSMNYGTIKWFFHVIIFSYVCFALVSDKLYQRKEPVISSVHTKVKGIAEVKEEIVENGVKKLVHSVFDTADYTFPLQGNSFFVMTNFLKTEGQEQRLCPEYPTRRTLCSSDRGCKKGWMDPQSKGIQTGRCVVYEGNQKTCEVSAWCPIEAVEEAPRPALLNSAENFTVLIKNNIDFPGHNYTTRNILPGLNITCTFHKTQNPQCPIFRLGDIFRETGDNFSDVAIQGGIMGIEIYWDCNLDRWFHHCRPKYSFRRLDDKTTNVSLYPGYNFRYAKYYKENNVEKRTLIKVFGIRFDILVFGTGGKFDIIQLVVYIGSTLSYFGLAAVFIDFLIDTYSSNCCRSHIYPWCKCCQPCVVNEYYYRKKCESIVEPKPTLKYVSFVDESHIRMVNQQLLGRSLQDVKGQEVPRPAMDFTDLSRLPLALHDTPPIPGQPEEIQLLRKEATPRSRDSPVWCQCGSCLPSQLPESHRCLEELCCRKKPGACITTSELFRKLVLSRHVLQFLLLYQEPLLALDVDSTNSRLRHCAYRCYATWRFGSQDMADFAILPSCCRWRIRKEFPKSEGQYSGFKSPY
Protocol: Homogenates were centrifuged at 48 000 g for 20 min at 4° C., the supernatant discarded and the pellet resuspended in Tris HCl 50 mM (pH 7.4 at 4° C.). Two additional spins at 48 000 g followed, discarding the supernatant each time and resuspending the pellet in 50 mM Tris HCl each time. Protein content was determined via bicinchoninic acid (BCA) assay (Pierce Biotechnology Inc., Rockford), the membrane solution supplemented with 0.1% bovine serum albumin (BSA) and stored at −80° C.
The incubation was terminated by rapid filtration through a glass fibre filter (GF/B; Millipore, Ireland), presoaked beforehand with 0.3% PEI) and washed 10 times with 50 mM Tris HCl (4° C.). The filters were then allowed to dry overnight before adding Microscint-0 scintillation cocktail (Perkin Elmer). […] For Kd and Bmax determination the specific binding was calculated (total binding minus non-specific binding) and analyzed using a one-site binding model (hyperbolic). The total binding and non-specific binding were also plotted for comparison (see FIG. 4). […] The extra sum of squares F-test was used to evaluate three potential models to fit the data; a one-site fit (with hill slope constrained to 1), a one-site fit (with hill slope as a variable) and a two-site fit. […] The Koff from dissociation studies was calculated using non-linear regression (exponential model) and then, in combination with the data from association studies, used to calculate the Kon. All data were analyzed using GraphPad Prism 5.

T1 sequence (P10635 whole entry): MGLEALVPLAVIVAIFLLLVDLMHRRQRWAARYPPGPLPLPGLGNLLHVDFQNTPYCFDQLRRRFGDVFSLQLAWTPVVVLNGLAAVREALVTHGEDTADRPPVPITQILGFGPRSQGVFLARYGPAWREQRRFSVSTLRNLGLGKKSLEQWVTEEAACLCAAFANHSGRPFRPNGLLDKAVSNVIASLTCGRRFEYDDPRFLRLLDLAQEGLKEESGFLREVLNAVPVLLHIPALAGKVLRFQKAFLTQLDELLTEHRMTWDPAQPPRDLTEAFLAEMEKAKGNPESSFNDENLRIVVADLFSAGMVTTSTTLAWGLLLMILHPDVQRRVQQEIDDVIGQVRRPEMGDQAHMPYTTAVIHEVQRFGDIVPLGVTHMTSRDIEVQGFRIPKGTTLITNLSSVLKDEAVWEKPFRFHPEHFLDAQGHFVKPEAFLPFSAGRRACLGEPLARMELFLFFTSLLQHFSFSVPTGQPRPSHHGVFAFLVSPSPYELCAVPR

| SMILES | inhibition at 60 min, 1 μM (CYP2D6) | Papp A→B at 30 min, 10 μM (P-gp (human MDR1)) | Papp B→A at 30 min, 10 μM (P-gp (human MDR1)) | inhibition at 60 min, 1 μM (CYP1A2) | Ki (hP2X7R) |
| --- | --- | --- | --- | --- | --- |
| COc1ccc(Cl)c(C(=O)NCC23CC4(F)CC(F)(CC(F)(C4)C2)C3)c1 [Compound 1, 2-Chloro-N-((3,5,7-trifluoroadamantan-1-yl)methyl)-5-methoxybenzamide] | -29.1% | 30.3 ×10⁻⁶ cm/s | 44.2 ×10⁻⁶ cm/s | 5.48% | – |
| COc1ccc(Cl)c(C(=O)NCC23CC4CC(F)(CC(F)(C4)C2)C3)c1 [Compound 2, 2-Chloro-N-((3,5-difluoroadamantan-1-yl)methyl)-5-methoxybenzamide] | -25.3% | 40 ×10⁻⁶ cm/s | 54.8 ×10⁻⁶ cm/s | 7.04% | 23 ± 5 nM |
| COc1ccc(Cl)c(C(=O)NCC23CC4CC(CC(F)(C4)C2)C3)c1 [Compound 3, 2-Chloro-N-((3-fluoroadamantan-1-yl)methyl)-5-methoxybenzamide] | -28.9% | 28.1 ×10⁻⁶ cm/s | 34.3 ×10⁻⁶ cm/s | 7.86% | 21.9 ± 0.5 nM |
| COc1ccc(Cl)c(C(=O)NCC23CC4CC(CC(C4)C2)C3)c1 [Compound 31, reference compound] | -47.3% | 40.9 ×10⁻⁶ cm/s | 23.6 ×10⁻⁶ cm/s | 25.7% | 8.5 nM |
